These results are taken from patent US20220009920A1 (GB005, Inc., priority 2020, published 2022).

The inhibition is the change of the read-out against control, counted positive when it falls.

Common to all, as to assay: Large panel kinase profiling
Format in all cases: biochemical

Assay [1] has as its target T1, ITK (Homo sapiens, UniProt Q08881).
T1 sequence (Q08881 1-620): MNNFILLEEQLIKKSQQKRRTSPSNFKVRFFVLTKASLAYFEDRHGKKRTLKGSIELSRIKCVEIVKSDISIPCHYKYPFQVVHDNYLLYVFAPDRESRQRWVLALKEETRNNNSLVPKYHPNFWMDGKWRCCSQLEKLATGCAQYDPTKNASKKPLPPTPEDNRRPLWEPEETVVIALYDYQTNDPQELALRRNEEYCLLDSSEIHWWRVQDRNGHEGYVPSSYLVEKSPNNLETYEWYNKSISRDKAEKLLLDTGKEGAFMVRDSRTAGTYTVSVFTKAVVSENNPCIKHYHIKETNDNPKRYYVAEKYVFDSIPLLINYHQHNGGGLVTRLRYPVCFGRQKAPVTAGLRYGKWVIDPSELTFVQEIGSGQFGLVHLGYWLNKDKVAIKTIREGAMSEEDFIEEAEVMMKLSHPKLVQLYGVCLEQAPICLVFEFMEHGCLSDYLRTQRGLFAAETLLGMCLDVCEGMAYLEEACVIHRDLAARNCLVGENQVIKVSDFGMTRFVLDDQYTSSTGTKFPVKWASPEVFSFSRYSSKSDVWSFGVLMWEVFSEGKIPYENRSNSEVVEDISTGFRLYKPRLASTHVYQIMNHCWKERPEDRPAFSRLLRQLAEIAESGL
Conditions: 1 μM test article, 1 mM ATP. The method, boiled down:
(§1)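 One compound concentration (1 μM) was screened against each kinase at 1 mM ATP using PhosphoSens CSox-Sensor detection, at 30° C., with fluorescence read every 1 min (Ex 360 nm/Em 485 nm).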

The target in assay [2] is T2, MST1R/RON (Homo sapiens, UniProt Q04912).
T2 construct: AssayQuant Technologies, Inc. (assay service)
Conditions: 1 μM test article, 1 mM ATP. The procedure, abridged: as §1

Assay [3] deals with IRAK1 (Homo sapiens, UniProt P51617). Conditions: 1 μM test article, 1 mM ATP. The procedure, abridged: as §1
Assay [4] has as its target PTK2B (Homo sapiens, UniProt Q14289). The method, boiled down: as §1
Assay [5] addresses T3, MYLK3 (Homo sapiens, UniProt Q32MK0).
T3 construct: AssayQuant Technologies, Inc. (assay service)
T3 sequence (Q32MK0 1-819): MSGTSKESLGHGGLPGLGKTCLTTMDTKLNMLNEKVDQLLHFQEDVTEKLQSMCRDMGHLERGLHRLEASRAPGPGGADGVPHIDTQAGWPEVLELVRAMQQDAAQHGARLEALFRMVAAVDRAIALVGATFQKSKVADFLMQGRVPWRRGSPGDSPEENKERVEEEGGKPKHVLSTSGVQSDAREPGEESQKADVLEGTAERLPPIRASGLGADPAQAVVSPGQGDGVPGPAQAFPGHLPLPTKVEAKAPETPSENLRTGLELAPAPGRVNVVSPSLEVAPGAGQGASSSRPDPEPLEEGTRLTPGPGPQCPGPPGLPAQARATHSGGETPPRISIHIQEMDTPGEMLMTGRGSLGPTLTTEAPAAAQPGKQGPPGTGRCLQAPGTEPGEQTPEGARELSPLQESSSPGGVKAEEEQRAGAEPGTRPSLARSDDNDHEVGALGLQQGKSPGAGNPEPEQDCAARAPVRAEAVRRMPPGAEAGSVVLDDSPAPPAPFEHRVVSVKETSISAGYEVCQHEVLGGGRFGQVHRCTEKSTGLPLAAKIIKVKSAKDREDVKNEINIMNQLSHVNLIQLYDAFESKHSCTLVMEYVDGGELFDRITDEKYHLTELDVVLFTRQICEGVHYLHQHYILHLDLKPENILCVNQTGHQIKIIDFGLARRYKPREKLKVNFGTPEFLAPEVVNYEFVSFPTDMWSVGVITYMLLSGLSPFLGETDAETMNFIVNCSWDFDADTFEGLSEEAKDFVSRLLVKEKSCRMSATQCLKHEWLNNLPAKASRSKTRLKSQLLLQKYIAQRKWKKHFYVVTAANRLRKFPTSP
Conditions: 1 μM test article, 1 mM ATP. The procedure, abridged:
as §1

In assay [6] the target is T4, CAMK2D (Homo sapiens, UniProt Q13557).
T4 construct: AssayQuant Technologies, Inc. (ran the panel)
Conditions: 1 μM test article, 1 mM ATP. The method, boiled down: as §1

[7] abbreviates: PTK2B, 1 μM test article, 1 mM ATP, read-out: % Inhibition.

Like-named read-outs stand apart in the source and are kept apart here.

PTK2B, sequence (Q14289 whole entry, species assumed): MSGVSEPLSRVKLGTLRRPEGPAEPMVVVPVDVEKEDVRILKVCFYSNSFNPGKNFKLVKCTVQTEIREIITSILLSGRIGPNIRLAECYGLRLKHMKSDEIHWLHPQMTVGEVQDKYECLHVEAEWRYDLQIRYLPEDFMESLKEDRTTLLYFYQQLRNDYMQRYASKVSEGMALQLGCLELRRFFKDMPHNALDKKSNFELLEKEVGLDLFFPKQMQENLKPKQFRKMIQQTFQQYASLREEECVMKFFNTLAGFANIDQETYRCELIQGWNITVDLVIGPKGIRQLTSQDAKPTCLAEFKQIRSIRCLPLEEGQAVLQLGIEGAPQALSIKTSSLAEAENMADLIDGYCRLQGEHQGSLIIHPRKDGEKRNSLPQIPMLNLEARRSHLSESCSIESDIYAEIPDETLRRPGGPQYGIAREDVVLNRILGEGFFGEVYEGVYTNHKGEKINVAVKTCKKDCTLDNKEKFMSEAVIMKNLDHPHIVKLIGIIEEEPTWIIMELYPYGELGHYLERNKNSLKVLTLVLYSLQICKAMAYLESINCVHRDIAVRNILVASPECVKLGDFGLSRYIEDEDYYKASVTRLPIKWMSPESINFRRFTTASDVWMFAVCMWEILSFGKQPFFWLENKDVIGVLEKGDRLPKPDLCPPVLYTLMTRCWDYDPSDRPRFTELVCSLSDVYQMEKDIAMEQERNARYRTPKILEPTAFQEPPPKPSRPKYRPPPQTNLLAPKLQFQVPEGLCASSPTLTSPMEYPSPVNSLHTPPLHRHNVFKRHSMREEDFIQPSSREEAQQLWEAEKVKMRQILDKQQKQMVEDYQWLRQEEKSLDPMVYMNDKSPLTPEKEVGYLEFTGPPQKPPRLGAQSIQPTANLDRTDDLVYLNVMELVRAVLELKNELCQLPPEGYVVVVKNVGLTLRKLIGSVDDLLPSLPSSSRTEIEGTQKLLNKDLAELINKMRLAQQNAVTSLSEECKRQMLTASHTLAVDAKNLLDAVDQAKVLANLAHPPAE
T2 sequence (Q04912 25-1400): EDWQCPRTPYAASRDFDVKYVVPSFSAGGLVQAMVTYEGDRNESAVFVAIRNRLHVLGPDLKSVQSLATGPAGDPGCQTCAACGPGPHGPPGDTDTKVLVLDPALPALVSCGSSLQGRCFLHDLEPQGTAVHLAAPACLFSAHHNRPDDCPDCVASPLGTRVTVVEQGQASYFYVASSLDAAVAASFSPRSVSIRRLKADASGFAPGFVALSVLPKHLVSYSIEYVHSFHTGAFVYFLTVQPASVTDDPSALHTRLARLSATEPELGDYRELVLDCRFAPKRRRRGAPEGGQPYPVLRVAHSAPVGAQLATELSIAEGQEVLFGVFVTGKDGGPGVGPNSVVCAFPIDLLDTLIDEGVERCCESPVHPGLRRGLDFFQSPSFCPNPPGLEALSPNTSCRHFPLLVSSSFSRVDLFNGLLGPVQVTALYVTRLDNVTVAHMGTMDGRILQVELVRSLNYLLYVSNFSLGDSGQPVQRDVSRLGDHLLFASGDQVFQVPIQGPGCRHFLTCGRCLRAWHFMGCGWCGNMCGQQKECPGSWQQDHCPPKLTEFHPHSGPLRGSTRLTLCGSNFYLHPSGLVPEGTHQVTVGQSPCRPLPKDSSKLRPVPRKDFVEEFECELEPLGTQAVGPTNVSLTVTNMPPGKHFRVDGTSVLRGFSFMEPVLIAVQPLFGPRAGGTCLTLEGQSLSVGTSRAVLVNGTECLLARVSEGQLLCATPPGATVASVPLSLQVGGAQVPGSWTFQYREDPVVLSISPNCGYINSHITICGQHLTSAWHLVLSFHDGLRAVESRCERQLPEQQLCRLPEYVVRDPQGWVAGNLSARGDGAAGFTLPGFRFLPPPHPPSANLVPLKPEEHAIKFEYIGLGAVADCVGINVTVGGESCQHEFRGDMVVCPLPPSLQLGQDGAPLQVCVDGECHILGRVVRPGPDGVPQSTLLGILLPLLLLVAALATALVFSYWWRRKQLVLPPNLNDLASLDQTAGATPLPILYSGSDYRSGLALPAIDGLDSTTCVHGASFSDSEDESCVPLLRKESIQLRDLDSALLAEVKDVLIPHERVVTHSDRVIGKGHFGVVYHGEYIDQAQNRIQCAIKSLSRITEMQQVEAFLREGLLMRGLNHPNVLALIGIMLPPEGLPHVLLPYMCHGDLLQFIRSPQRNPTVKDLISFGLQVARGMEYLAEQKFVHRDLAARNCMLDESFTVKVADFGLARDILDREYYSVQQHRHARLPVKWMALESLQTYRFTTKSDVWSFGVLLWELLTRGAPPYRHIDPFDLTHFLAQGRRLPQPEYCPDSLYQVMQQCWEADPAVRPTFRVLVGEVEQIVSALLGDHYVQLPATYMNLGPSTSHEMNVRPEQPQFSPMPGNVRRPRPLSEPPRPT
T4 sequence (Q13557 whole entry, species assumed): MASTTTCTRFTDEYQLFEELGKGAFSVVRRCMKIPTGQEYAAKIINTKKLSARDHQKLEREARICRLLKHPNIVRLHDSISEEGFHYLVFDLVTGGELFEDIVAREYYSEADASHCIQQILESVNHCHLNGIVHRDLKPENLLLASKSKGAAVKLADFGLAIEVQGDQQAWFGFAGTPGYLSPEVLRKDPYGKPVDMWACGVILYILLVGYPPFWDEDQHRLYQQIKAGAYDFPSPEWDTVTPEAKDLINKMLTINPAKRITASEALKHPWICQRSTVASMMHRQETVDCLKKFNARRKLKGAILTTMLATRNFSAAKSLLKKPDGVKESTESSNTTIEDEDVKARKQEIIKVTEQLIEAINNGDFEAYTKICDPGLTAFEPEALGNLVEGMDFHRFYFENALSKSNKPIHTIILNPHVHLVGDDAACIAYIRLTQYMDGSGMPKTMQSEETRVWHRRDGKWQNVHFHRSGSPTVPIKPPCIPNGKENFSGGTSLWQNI
IRAK1, sequence (P51617 whole entry, species assumed): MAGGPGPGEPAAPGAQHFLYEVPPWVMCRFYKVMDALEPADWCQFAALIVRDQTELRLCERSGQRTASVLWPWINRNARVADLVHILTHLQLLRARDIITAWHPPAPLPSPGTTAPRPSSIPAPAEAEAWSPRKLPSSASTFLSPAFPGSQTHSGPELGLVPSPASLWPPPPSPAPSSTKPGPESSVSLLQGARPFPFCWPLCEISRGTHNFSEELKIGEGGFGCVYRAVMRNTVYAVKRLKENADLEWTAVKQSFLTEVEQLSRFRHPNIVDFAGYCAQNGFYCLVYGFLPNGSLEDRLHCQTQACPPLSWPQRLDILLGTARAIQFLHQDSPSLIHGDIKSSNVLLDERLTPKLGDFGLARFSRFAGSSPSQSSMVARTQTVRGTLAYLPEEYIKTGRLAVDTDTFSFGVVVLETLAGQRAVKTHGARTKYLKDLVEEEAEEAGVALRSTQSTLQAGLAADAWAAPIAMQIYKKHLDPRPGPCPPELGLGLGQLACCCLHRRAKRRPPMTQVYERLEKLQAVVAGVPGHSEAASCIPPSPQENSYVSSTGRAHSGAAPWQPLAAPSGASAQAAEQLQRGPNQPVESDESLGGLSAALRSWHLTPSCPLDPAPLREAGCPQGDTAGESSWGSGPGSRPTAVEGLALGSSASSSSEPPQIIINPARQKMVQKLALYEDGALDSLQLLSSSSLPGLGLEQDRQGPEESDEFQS

As for `C=CC(=O)N1CCCC(c2c(F)cc(C(N)=O)c3[nH]c4c(c23)CCCCC4)C1` (single isomer, unassigned) [Compound 5-6], the inhibition at 1 µM in assay [1] was 44.8%; in assay [2], -2.4%; in assay [3], -28.6%; in assay [4] (setting [7]), -16.1%; in assay [5], 21.5%; in assay [6], 1.1%.

For the molecule `C=CC(=O)N1CCC[C@@H](c2c(F)cc(C(N)=O)c3[nH]c4c(c23)CC2(CC4)CC2)C1` [Compound 6-2, (S)-5-(1-acryloylpiperidin-3-yl)-6-fluoro-1,2,4,9-tetrahydrospiro[carbazole-3,1′-cyclopropane]-8-carboxamide], the inhibition at 1 µM in assay [1] was 29.2%; in assay [2] it was -0.6%; in assay [3], 5.6%; in assay [4] it was -15.4%; in assay [5], 9.9%; in assay [6], 8.4%.

On to `C=CC(=O)N1CCC[C@@H](c2c(F)cc(C(N)=O)c3[nH]c4c(c23)CCC4)C1` [Compound 10-2, (S)-8-(1-acryloylpiperidin-3-yl)-7-fluoro-1,2,3,4-tetrahydrocyclo-penta[b]indole-5-carboxamide], for which the inhibition at 1 µM in assay [1] is 12.2%; in assay [2], -2.5%; in assay [3], 7.8%; in assay [4] (setting [7]), -8.8%; in assay [5], 14.9%; in assay [6], -10.7%.
